Laboratory results: paper PMC8851771, “Molecular action of larvicidal flavonoids on ecdysteroidogenic glutathione S-transferase Noppera-bo in Aedes aegypti” (BMC Biology, 2022)
Where two headings read alike, the source gives them in different places. One block for each compound: values may come before it.

How the values were obtained:
AeNobo-WT = AeNobo-WT (Aedes aegypti, UniProt A0A1S4FIB3); experiment: GST activity inhibition assay with 3,4-DNADCF, wild-type AeNobo; assay type: biochemical
Procedure: We prepared a purified AeNobo recombinant protein (220-aa length) using an Escherichia coli protein expression system. The GST enzymatic activity was examined using the fluorogenic artificial substrate 3,4-dinitrobenzamidedichlorofluorescein (3,4-DNADCF).
The IC50 value was measured using an in vitro assay system as described previously. […] Five microliters of each diluted compound solution was mixed with 245 μL of solution A (100 mM sodium phosphate buffer at pH 6.5, 0.01% Tween 20, 2 mM GSH, and 50 ng/mL AeNobo-WT, 100 ng/mL AeNobo-E113A, and 200 ng/mL F39L). One hundred microliters of the mixture was dispensed into wells of a 96-well plate. One hundred microliters of solution B (0.2 μM 3,4-DNADCF and 100 mM sodium phosphate buffer at pH 6.5) was added to each well. In summary, the final reaction system comprised 100 mM sodium phosphate buffer (pH 6.5), 1 mM GSH, 0.005% Tween 20, 0.1 μM 3,4-DNACDF, and 25 ng/mL AeNobo, 50 ng/mL AeNobo-E113A, or 100 ng/mL AeNobo-F39L protein. The fluorescence intensity derived from 4-GS-3-NADCF, a product of this reaction, was measured for 3 min. IC50 values were estimated as described previously. The enzymatic assays under each condition were performed at least twice independently.
To identify inhibitors of AeNobo enzymatic activity, a high-throughput screening was performed as described in a previous study. Briefly, a core library of 9600 compounds obtained from the Drug Discovery Initiative, The University of Tokyo, was utilized for screening. In this screen, the enzymatic activity of AeNobo was detected using 3,4-DNADCF [29]. […] Then, 1 μL of solution B (4 μM 3,4-DNADCF, 100 mM sodium phosphate at pH 6.5, and 0.005% Tween 20) was added into each well. In summary, the reaction system comprised 5.6 ng/mL AeNobo protein, 2 μM 3,4-DNADCF, 1 mM GSH, 0.005% Tween 20, and 100 mM sodium phosphate at pH 6.5, together with each compound at 10 μM. The plate was incubated for 30 min at 25–27 °C and 2 μL of 10 mM N-ethylmaleimide was added into each well to stop the reaction. […] For the second screen, we assayed the IC50 values of the compounds against the enzymatic activity of AeNobo.

AeNobo-E113A = AeNobo-E113A (Aedes aegypti, UniProt A0A1S4FIB3, E164K); experiment: GST activity inhibition assay with 3,4-DNADCF, AeNobo-E113A; assay type: biochemical
Chain of AeNobo-E113A (A0A1S4FIB3 entry or part of it E164K): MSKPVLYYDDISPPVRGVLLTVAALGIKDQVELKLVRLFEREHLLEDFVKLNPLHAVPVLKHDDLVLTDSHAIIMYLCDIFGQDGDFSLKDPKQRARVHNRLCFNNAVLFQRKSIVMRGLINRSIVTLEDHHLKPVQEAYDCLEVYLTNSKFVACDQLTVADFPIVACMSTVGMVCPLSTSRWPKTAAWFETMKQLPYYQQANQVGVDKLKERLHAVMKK
Excerpt: The importance of the Glu-113–flavonoid hydrogen bond for flavonoid binding was biochemically examined with a recombinant mutated AeNobo protein carrying an E113A aa substitution (AeNobo-E113A).
(§1) pCold III plasmids expressing the AeNobo-E113A and AeNobo-F39L were constructed using KOD-Plus-Mutagenesis Kit (Toyobo). The following primers were used: E113A-F (5′-[…]-3′) and E113A-R (5′-[…]-3′) for AeNobo-E113A and F39L-F (5′-[…]-3′) and F39L-R (5′-[…]-3′) for AeNobo-F39L. We conducted inverse PCR using KOD-plus polymerase, pColdIII/AeNobo-WT plasmid, and the primer pair described above under the following conditions: pre-denaturation at 94 °C for 2 min, denaturation at 98 °C for 10 s, and extension at 68 °C for 6 min for 6 cycles. The PCR products were treated with DpnI at 37 °C for 1 h, followed by self-ligation using T4 polynucleotide kinase and Ligation High. After the transformation of DH5α bacteria using the ligation products, we extracted plasmid DNA from the colonies and verified their sequences to confirm whether the appropriate point mutations were introduced.
The IC50 value was measured using an in vitro assay system as described previously. A dilution series of compounds, ranging from 2.5 mM to 0.127 μM for DMG and from 2.5 mM to 4.9 μM for other compounds, was prepared by 2-fold serial dilution in DMSO. Five microliters of each diluted compound solution was mixed with 245 μL of solution A (100 mM sodium phosphate buffer at pH 6.5, 0.01% Tween 20, 2 mM GSH, and 50 ng/mL AeNobo-WT, 100 ng/mL AeNobo-E113A, and 200 ng/mL F39L). One hundred microliters of the mixture was dispensed into wells of a 96-well plate. One hundred microliters of solution B (0.2 μM 3,4-DNADCF and 100 mM sodium phosphate buffer at pH 6.5) was added to each well. In summary, the final reaction system comprised 100 mM sodium phosphate buffer (pH 6.5), 1 mM GSH, 0.005% Tween 20, 0.1 μM 3,4-DNACDF, and 25 ng/mL AeNobo, 50 ng/mL AeNobo-E113A, or 100 ng/mL AeNobo-F39L protein. The fluorescence intensity derived from 4-GS-3-NADCF, a product of this reaction, was measured for 3 min. IC50 values were estimated as described previously. The enzymatic assays under each condition were performed at least twice independently.

[1] = target: Aedes aegypti Noppera-bo (AeNobo), wild type, 220-aa protein (Aedes aegypti); experiment: SEC; gel filtration of purified AeNobo on HiLoad Superdex200 26/60; 150 mM NaCl, 25 mM Tris-HCl pH 8.0, 5 mM DTT; 1 mL/min; compared with marker proteins
[2] = test system: Ae. aegypti 1st instar larvae; conditions: cited from earlier work
AeNobo-F39L = AeNobo-F39L (Aedes aegypti, UniProt A0A1S4FIB3, F90L); experiment: GST activity inhibition assay with 3,4-DNADCF, AeNobo-F39L; assay type: biochemical
Chain of AeNobo-F39L (A0A1S4FIB3 entry or part of it F90L): as the sequence (A0A1S4FIB3 entry or part of it E164K) above, with F39L, K113E counted along it
Procedure: as §1
The IC50 value was measured using an in vitro assay system as described previously. A dilution series of compounds, ranging from 2.5 mM to 0.127 μM for DMG and from 2.5 mM to 4.9 μM for other compounds, was prepared by 2-fold serial dilution in DMSO. […] The fluorescence intensity derived from 4-GS-3-NADCF, a product of this reaction, was measured for 3 min. […]

[3] = Table 1, GSH conjugation of 3,4-DNADCF, read-out: IC50 to AeNobo-WT (μM) (mean ± s.d.)
[4] = Table S2, estrogenic compounds against AeNobo, read-out: IC50 (μM) (mean ± s.d.)
[5] = read-out: IC50 (μM) (mean ± s.d.)
[6] = Table S5, luteolin derivatives against AeNobo, read-out: IC50 (μM) (mean ± s.d.)

Chain of AeNobo-WT (A0A1S4FIB3 entry or part of it): as the sequence (A0A1S4FIB3 entry or part of it E164K) above, with K113E counted along it

Compound: O=c1c(O)c(-c2ccc(O)c(O)c2)oc2cc(O)ccc12 [Fisetin]
IC50 (AeNobo-WT; [3]): 1.69 ± 0.04 µM
IC50 (AeNobo-E113A): > 25 µM

Compound: O=C1C[C@@H](c2ccc(O)cc2)Oc2cc(O)cc(O)c21 [Naringenin]
IC50 (AeNobo-WT; [3]): > 25 µM

Compound: C[C@H]1CCC[C@H](O)CCCCCc2cc(O)cc(O)c2C(=O)O1 [α-zearalanol]
IC50 (AeNobo-WT; [4]): > 25 µM

IC50 (AeNobo-WT): 1.64 ± 0.1 µM
Inhibition of enzymatic activity of AeNobo (in words) (AeNobo-WT; 3,4-DNADCF): retained inhibitory activity
Compound: O=c1cc(-c2ccc(O)c(O)c2)oc2cccc(O)c12 [5,3’,4’-Trihydroxyflavone, 5,3′,4′-trihydroxyflavone]

IC50 (AeNobo-WT; [4]): > 25 µM
Compound: CC1=CC[C@@H]2C[C@H]1C(c1ccc(O)cc1)OC2(C)C (stereo partly drawn) [4-[(1R,5R)-4,4,8-trimethyl-3-oxabicyclo[3.3.1]non-7-en-2-yl]phenol]

stoichiometry N [1]: 2
Compound: Aedes aegypti Noppera-bo (AeNobo), wild type, 220-aa protein (enzyme)

IC50 (AeNobo-WT; [4]): > 25 µM
Compound: CC1=CC(C)[C@@]2(CO)COC(c3ccc(O)cc3)[C@@H]1C2C (stereo partly drawn) [4-[(1R,5R)-5-(hydroxymethyl)-6,8,9-trimethyl-3-oxabicyclo[3.3.1]non-7-en-2-yl]phenol]

Compound: Oc1cc(O)c2cc(O)c(-c3ccc(O)c(O)c3)[o+]c2c1 [Cyanidin chloride]
IC50 (AeNobo-WT; [3]): 2.15 ± 0.24 µM
IC50 (AeNobo-E113A): > 25 µM

IC50 (AeNobo-WT; [3]): > 25 µM
Compound: Oc1ccc([C@H]2COc3cc(O)ccc3C2)cc1 [S-equol]

Compound: O=c1c(O)c(-c2cc(O)c(O)c(O)c2)oc2cc(O)cc(O)c12 [Myricetin]
IC50 (AeNobo-WT): 2.91 ± 0.27 µM
IC50 (AeNobo-E113A): > 25 µM

Inhibition of enzymatic activity of AeNobo (in words) (AeNobo-WT; 3,4-DNADCF): did not inhibit
IC50 (AeNobo-WT; [5]): > 25 µM
Compound: O=c1c(-c2ccc(O)cc2)coc2ccccc12 [3-(4-Hydroxyphenyl)-4H-chromen-4-one]

Compound: O=C1CC(c2ccccc2O)Oc2ccccc21 (stereo not shown) [2′-Hydroxyflavanone]
IC50 (AeNobo-WT; [3]): 4.76 ± 0.37 µM
IC50 (AeNobo-E113A): > 25 µM

Compound: O=c1cc(-c2ccc(O)c(O)c2)oc2cc(O)cc(O)c12 [Luteolin]
Larvicidal activity toward Ae. aegypti [2]: known to exhibit larvicidal activity
IC50 (AeNobo-F39L): 1.58 µM
IC50 (AeNobo-E113A): 35.8 ± 5.73 µM

Compound: O=c1c(O)c(-c2ccc(O)c(O)c2)oc2cc(O)cc(O)c12 [Quercetin]
IC50 (AeNobo-WT): 0.963 ± 0.094 µM
IC50 (AeNobo-E113A): > 25 µM

IC50 (AeNobo-WT; [5]): 1.86 ± 0.41 µM
Compound: O=c1c(-c2ccc(O)cc2)coc2cc(O)cc(O)c12 [Genistein]
Larvicidal activity against Ae. aegypti [2]: exhibit larvicidal activity

Compound: O=c1c(O)c(-c2ccc(O)cc2)oc2cc(O)cc(O)c12 [Kaempferol]
IC50 (AeNobo-WT; [3]): 4.91 ± 1.69 µM
IC50 (AeNobo-E113A): > 25 µM

Compound: CCCCOC(=O)c1ccc(O)cc1 [butyl 4-hydroxybenzoate]
IC50 (AeNobo-WT; [4]): > 25 µM

Compound: O=c1cc(-c2ccccc2)oc2cc(O)cc(O)c12 [Chrysin]
Inhibition of enzymatic activity of AeNobo (in words) (AeNobo-WT; 3,4-DNADCF): did not exhibit any inhibitory activity
IC50 (AeNobo-WT; [6]): > 25 µM

Compound: O=c1cc(-c2ccc(O)cc2)oc2cc(O)cc(O)c12 [Apigenin]
IC50 (AeNobo-WT; [6]): > 25 µM
IC50 (AeNobo-WT; text and figures, 3,4-DNADCF, read-out: IC50 against AeNobo (WT)): > 25 µM

IC50 (AeNobo-WT; [4]): > 25 µM
Compound: O=C(c1ccc(O)cc1O)c1ccc(O)cc1O [bis(2,4-dihydroxyphenyl)methanone]

Compound: CCCOC(=O)c1ccc(O)cc1 [propyl 4-hydroxybenzoate]
IC50 (AeNobo-WT; [4]): > 25 µM

Compound: CC(C)(C)CC(C)(C)c1ccc(O)cc1 [4-(2,4,4-trimethylpentan-2-yl)phenol]
IC50 (AeNobo-WT; [4]): > 25 µM

Compound: Oc1ccc(C(c2ccc(O)cc2)C(Cl)(Cl)Cl)cc1 [4-[2,2,2-trichloro-1-(4-hydroxyphenyl)ethyl]phenol]
IC50 (AeNobo-WT): > 25 µM

IC50 (AeNobo-WT; [4]): > 25 µM
Compound: Cc1cc(-c2ccc3c(c2)CC[C@]3(C)O)cc(C)c1O [(S)-5-(4-hydroxy-3,5-dimethylphenyl)-1-methyl-2,3-dihydro-1H-inden-1-ol]

Compound: C[C@]12CC[C@@H]3c4ccc(O)cc4CC[C@H]3[C@@H]1C/C(=C\c1ccccc1)C2=O [16-benzylidene estrone]
IC50 (AeNobo-WT; [4]): > 25 µM

IC50 (AeNobo-WT; [3]): > 25 µM
Compound: (+)-catechin hydrate [(+) Catechin hydrate]

Compound: ClC(Cl)=C(c1ccc(Cl)cc1)c1ccc(Cl)cc1 [1,1-Dichloro-2,2-bis(4-chlorophenyl)ethene]
IC50 (AeNobo-WT): > 25 µM

Compound: COc1ccc(-c2coc3cc(O)cc(O)c3c2=O)cc1 [Biochanin A]
IC50 (AeNobo-WT; [3]): 1.84 ± 0.06 µM
IC50 (AeNobo-E113A; Table 1, GSH conjugation of 3,4-DNADCF, read-out: IC50 to AeNobo-E113A (μM) (mean ± s.d.)): > 25 µM

Compound: Cn1c(N)nc2ncc(-c3ccccc3)cc21 [2-Amino-1-methyl-6-phenylimidazo[4,5-b]pyridine]
IC50 (AeNobo-WT): > 25 µM

IC50 (AeNobo-WT; [3]): > 25 µM
Compound: COc1ccc(-c2oc3cc(O)cc(O)c3c(=O)c2O)cc1O [Tamarixetin]

Compound: CCCCOC(=O)c1ccccc1C(=O)OCc1ccccc1 [1-benzyl 2-butyl benzene-1,2-dicarboxylate]
IC50 (AeNobo-WT; [4]): > 25 µM

Compound: O=c1c(-c2ccc(O)cc2)coc2cc(O)ccc12 [Daidzein]
Larvicidal activity against Ae. aegypti [2]: exhibit larvicidal activity
Larvicidal activity toward Ae. aegypti [2]: known to exhibit larvicidal activity
IC50 (AeNobo-WT): 3.87 ± 0.52 µM
IC50 (AeNobo-E113A): > 25 µM

Compound: C[C@H]1CCCC(=O)CCC/C=C/c2cc(O)cc(O)c2C(=O)O1 [Zearalenone]
IC50 (AeNobo-WT): > 25 µM

Compound: Oc1ccc(/C=C/c2cc(O)cc(O)c2)cc1 [Resveratrol]
IC50 (AeNobo-WT; [4]): > 25 µM

IC50 (AeNobo-WT): > 25 µM
Compound: CC(C)(c1ccc(O)cc1)c1ccc(O)cc1 [Biosphenol A, 4,4'-propane-2,2-diyldiphenol]

Inhibition of enzymatic activity of AeNobo (in words) (AeNobo-WT; 3,4-DNADCF): retained inhibitory activity
IC50 (AeNobo-WT; [5]): 10.3 ± 0.47 µM
Compound: O=c1cc(-c2ccc(O)c(O)c2)oc2cc(O)ccc12 [7,3’,4’-Trihydroxyflavone, 7,3′,4′-trihydroxyflavone]

Compound: COc1cc(-c2[o+]c3cc(O)cc(O)c3cc2O)cc(O)c1O [Petunidin]
IC50 (AeNobo-WT; [3]): 14.9 ± 2.01 µM
IC50 (AeNobo-E113A): > 25 µM

IC50 (AeNobo-WT): 5.61 ± 0.3 µM
Inhibition of enzymatic activity of AeNobo (in words) (AeNobo-WT; 3,4-DNADCF): retained inhibitory activity
Compound: O=c1c(-c2ccccc2)coc2cc(O)ccc12 [7-Hydroxyisoflavone]
